The text below walks through data of patent US12662479B2 (Foghorn Therapeutics Inc., priority 2020, dated 2026).

One assay deals with T1, HiBit-BRM fusion protein (Homo sapiens, UniProt P51531).
T1 construct: expressed in transfected cells
Nature of the assay: HiBiT-BRM cell-based degradation assay (Nano-Glo HiBiT Lytic Detection, 24 h). Particulars: HeLa cells expressing HiBiT-BRM; for DC50: read-out: BRM HiBit Degradation IC50; for BRM HiBit Degradation Maximum measured: top dose 30 μM. In short, it runs like this: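 Residual HiBiT-BRM in a stable HeLa line was measured by Nano-Glo lytic luminescence after 24 h compound exposure (top final dose 30 μM, 3-fold, 10 points, duplicate). Values are % degradation, scaled between DMSO-treated cells and cells given 2 μM of a known BRM/BRG1 degrader.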

In assay [1] the target is T2, HiBit-BRG1 fusion protein (Homo sapiens, UniProt P51532).
T2 construct: expressed in transfected cells
T2 sequence (P51532 whole entry, the tested form may be a part): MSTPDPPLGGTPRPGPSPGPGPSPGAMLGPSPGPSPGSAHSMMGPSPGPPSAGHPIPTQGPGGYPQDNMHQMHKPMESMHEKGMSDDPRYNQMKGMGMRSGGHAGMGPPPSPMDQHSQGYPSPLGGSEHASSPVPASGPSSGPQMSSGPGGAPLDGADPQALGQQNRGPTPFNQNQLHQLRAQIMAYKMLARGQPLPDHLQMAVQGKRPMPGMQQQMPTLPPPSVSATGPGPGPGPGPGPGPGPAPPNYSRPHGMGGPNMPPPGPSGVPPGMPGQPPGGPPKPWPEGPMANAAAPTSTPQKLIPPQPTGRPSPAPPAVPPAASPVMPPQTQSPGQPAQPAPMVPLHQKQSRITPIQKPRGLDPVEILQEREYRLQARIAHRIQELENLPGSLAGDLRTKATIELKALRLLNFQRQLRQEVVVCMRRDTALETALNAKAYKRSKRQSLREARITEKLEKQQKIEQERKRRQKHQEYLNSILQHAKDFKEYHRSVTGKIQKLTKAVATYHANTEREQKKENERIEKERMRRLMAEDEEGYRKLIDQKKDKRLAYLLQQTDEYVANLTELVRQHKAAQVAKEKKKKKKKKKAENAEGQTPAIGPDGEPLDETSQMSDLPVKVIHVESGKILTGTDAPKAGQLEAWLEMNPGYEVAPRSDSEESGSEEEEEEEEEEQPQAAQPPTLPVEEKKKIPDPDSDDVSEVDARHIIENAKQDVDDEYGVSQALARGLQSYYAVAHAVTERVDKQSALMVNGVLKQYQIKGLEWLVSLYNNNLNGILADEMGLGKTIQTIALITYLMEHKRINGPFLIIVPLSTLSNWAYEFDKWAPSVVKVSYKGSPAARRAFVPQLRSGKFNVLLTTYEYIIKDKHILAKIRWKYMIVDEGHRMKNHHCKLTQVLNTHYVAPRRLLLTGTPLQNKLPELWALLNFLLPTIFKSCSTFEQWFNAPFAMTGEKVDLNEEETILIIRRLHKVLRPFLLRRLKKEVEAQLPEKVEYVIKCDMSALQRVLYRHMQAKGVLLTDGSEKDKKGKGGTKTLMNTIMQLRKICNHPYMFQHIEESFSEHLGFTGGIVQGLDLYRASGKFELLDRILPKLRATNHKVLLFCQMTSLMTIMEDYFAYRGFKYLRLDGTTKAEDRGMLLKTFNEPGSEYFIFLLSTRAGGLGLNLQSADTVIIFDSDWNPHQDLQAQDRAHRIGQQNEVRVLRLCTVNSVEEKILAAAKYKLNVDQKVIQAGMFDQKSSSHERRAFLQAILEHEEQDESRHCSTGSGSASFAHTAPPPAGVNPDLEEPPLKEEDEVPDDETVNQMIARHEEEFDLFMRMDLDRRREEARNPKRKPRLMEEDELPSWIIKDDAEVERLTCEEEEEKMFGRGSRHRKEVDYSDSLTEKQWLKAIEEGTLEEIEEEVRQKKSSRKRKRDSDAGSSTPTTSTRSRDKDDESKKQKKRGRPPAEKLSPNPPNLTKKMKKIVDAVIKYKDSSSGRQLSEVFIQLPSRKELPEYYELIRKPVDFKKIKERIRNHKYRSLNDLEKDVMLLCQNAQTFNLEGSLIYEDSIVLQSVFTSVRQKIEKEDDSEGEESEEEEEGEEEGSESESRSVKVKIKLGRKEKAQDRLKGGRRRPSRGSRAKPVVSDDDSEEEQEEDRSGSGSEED
Put plainly: HiBiT-BRG1 cell-based degradation assay (Nano-Glo HiBiT Lytic Detection, 24 h). Particulars: HeLa cells expressing HiBit-BRG1 and LgBit; for DC50: read-out: BRG1 HiBit Degradation IC50; for Dmax: HeLa, top dose 30 μM, read-out: BRG1 HiBit Degradation Maximum measured. In short, it runs like this:
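Degradation is scaled from DMSO-treated cells (0%) to cells given 2 μM of a known BRM/BRG1 degrader (100%). HeLa cells stably carrying HiBiT-BRG1 plus LgBiT (5000/well) were lysed with Nano-Glo HiBiT detection reagent, shaken 10 min at RT, and luminescence read.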
A general note: The HiBiT peptide binds its large partner to form an active luciferase.

Structures can show the parent of a compound that is named as a salt.

T1 sequence (P51531 whole entry, the tested form may be a part): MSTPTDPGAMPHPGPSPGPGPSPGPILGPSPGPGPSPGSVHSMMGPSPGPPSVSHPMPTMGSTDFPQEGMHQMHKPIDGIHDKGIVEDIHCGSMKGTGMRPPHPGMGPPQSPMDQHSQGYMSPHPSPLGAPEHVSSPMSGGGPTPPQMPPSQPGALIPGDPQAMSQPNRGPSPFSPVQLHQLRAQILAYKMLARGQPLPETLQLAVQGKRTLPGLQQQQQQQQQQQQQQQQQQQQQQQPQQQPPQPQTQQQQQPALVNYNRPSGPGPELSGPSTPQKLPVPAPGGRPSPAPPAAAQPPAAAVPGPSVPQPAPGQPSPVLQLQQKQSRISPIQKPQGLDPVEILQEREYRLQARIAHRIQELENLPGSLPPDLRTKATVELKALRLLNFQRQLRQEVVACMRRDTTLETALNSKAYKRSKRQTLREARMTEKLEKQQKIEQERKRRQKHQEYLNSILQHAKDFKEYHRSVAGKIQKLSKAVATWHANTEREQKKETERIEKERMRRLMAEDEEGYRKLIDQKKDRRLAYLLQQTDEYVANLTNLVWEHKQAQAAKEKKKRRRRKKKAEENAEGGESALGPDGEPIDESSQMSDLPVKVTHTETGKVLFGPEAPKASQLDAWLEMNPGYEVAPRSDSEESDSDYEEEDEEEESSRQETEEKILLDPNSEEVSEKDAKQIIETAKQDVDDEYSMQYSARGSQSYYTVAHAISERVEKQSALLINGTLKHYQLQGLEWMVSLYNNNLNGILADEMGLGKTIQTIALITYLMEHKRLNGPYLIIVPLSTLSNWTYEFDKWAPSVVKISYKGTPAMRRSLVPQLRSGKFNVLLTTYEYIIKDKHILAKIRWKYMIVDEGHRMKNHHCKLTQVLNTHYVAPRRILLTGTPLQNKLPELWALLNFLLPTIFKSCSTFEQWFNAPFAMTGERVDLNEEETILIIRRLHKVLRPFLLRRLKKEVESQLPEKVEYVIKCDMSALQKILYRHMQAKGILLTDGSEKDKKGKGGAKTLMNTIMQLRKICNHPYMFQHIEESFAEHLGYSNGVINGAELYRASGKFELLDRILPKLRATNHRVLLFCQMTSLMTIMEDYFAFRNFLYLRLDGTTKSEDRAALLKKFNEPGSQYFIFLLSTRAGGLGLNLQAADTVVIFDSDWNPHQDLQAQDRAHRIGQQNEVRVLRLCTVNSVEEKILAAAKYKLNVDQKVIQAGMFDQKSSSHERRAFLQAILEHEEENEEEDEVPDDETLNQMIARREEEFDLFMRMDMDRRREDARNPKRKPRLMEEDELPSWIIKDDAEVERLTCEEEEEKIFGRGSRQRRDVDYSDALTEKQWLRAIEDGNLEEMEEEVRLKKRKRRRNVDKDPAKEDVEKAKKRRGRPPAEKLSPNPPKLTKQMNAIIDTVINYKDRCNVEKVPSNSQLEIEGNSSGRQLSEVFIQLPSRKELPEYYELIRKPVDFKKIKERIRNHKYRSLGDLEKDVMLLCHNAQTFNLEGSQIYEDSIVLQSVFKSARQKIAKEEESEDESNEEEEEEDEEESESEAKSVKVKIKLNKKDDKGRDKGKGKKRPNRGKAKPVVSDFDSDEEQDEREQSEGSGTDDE

As to `CS(=O)(=O)n1ccc(C(=O)N[C@@H](CCOCCCC(=O)N2CCN(CCOc3ccc4c(c3)C(=O)N(C3CCC(=O)NC3=O)C4=O)CC2)C(=O)Nc2nc(-c3ccccc3)cs2)c1` (stereo partly drawn) [Compound 219, (2S)-4-[4-[4-(2-[[2-(2,6-dioxopiperidin-3-yl)-1,3-dioxoisoindol-5-yl]oxy]ethyl)piperazin-1-yl]-4-oxobutoxy]-2-[(1-methanesulfonylpyrrol-3-yl)formamido]-N-(4-phenyl-1,3-thiazol-2-yl)butanamide], on HiBit-BRM fusion protein, the DC50 was greater than 10 µM and the “BRM HiBit Degradation Maximum measured” value was “C (‘C’ = Maximum degradation <50%)”. In addition, in assay [1], the DC50 is greater than 10 µM and the Dmax was less than 50%.
For `CS(=O)(=O)n1ccc(C(=O)N[C@@H](CCOCCCC(=O)N2CCC(CN3CCN(c4ccc5c(c4)C(=O)N(C4CCC(=O)NC4=O)C5=O)CC3)CC2)C(=O)Nc2nc(-c3ccccc3)cs2)c1` (stereo partly drawn) [Compound 220, N-((2S)-4-(4-(4-((4-(2-(2,6-dioxopiperidin-3-yl)-1,3-dioxoisoindolin-5-yl)piperazin-1-yl)methyl)piperidin-1-yl)-4-oxobutoxy)-1-oxo-1-((4-phenylthiazol-2-yl)amino)butan-2-yl)-1-(methylsulfonyl)-1H-pyrrole-3-carboxamide formate], at HiBit-BRM fusion protein, the DC50 was greater than 10 µM and the “BRM HiBit Degradation Maximum measured” value is listed as “C (‘C’ = Maximum degradation <50%)”. Moreover, in assay [1], the DC50 was greater than 10 µM and the Dmax is less than 50%.
In the case of `CS(=O)(=O)n1ccc(C(=O)N[C@@H](CCOCCCC(=O)N2CC(CN3CCN(c4ccc5c(c4)C(=O)N(C4CCC(=O)NC4=O)C5=O)CC3)C2)C(=O)Nc2nc(-c3ccccc3)cs2)c1` (stereo partly drawn) [Compound 221, (2S)-4-[4-[3-([4-[2-(2,6-dioxopiperidin-3-yl)-1,3-dioxoisoindol-5-yl]piperazin-1-yl]methyl)azetidin-1-yl]-4-oxobutoxy]-2-[(1-methanesulfonylpyrrol-3-yl)formamido]-N-(4-phenyl-1,3-thiazol-2-yl)butanamide], on HiBit-BRM fusion protein, the DC50 is greater than 10 µM and the “BRM HiBit Degradation Maximum measured” value is on record as “C (‘C’ = Maximum degradation <50%)”. In addition, in assay [1], the DC50 was greater than 10 µM and the Dmax was less than 50%.
On to `CS(=O)(=O)n1ccc(C(=O)N[C@@H](CCOCCCC(=O)N2CC3(CCN(CCCNc4ccc5c(c4)C(=O)N(C4CCC(=O)NC4=O)C5=O)CC3)C2)C(=O)Nc2nc(-c3ccccc3)cs2)c1` (stereo partly drawn) [Compound 222, (2S)-4-[4-[7-(3-[[2-(2,6-dioxopiperidin-3-yl)-1,3-dioxoisoindol-5-yl]amino]propyl)-2,7-diazaspiro[3.5]nonan-2-yl]-4-oxobutoxy]-2-[(1-methanesulfonylpyrrol-3-yl)formamido]-N-(4-phenyl-1,3-thiazol-2-yl)butanamide; formic acid], for which, on HiBit-BRM fusion protein, the DC50 was greater than 10 µM and the “BRM HiBit Degradation Maximum measured” value is given as “C (‘C’ = Maximum degradation <50%)”. For the same compound, in assay [1], the DC50 is greater than 10 µM and the Dmax was less than 50%.
`CS(=O)(=O)n1ccc(C(=O)N[C@@H](CCOCCCC(=O)NCCOCCOCCNC(=O)COc2cccc3c2C(=O)N(C2CCC(=O)NC2=O)C3=O)C(=O)Nc2nc(-c3ccccc3)cs2)c1` (stereo partly drawn) [Compound 223, (2S)-4-[3-[(2-[2-[2-(2-[[2-(2,6-dioxopiperidin-3-yl)-1,3-dioxoisoindol-4-yl]oxy]acetamido)ethoxy]ethoxy]ethyl)carbamoyl]propoxy]-2-[(1-methanesulfonylpyrrol-3-yl)formamido]-N-(4-phenyl-1,3-thiazol-2-yl)butanamide]: at HiBit-BRM fusion protein, the DC50 was greater than 10 µM and the “BRM HiBit Degradation Maximum measured” value was “C (‘C’ = Maximum degradation <50%)”. Moreover, in assay [1], the DC50 was greater than 10 µM and the Dmax was less than 50%.
As to `CS(=O)(=O)n1ccc(C(=O)N[C@@H](CCOCCCC(=O)N2CC(CCOc3cccc4c3C(=O)N(C3CCC(=O)NC3=O)C4=O)C2)C(=O)Nc2nc(-c3ccccc3)cs2)c1` (stereo partly drawn) [Compound 224, (2S)-4-[4-[3-(2-[[2-(2,6-dioxopiperidin-3-yl)-1,3-dioxoisoindol-4-yl]oxy]ethyl)azetidin-1-yl]-4-oxobutoxy]-2-[(1-methanesulfonylpyrrol-3-yl)formamido]-N-(4-phenyl-1,3-thiazol-2-yl)butanamide], at HiBit-BRM fusion protein, the DC50 is greater than 10 µM and the “BRM HiBit Degradation Maximum measured” value was “C (‘C’ = Maximum degradation <50%)”. In assay [1], the DC50 is greater than 10 µM and the Dmax was less than 50%.
`Cc1ncsc1-c1ccc(CNC(=O)[C@@H]2C[C@@H](O)CN2C(=O)[C@@H](NC(=O)COCCOCCOCCNC(=O)CCCOC[C@H](NC(=O)c2ccn(S(C)(=O)=O)c2)C(=O)Nc2nc(-c3ccccc3)cs2)C(C)(C)C)cc1` [Compound 225, (2S,4R)-4-hydroxy-1-[(2S)-2-(2-[2-[2-(2-[4-[(2S)-2-[(1-methanesulfonylpyrrol-3-yl)formamido]-2-[(4-phenyl-1,3-thiazol-2-yl)carbamoyl]ethoxy]butanamido]ethoxy)ethoxy]ethoxy]acetamido)-3,3-dimethylbutanoyl]-N-[[4-(4-methyl-1,3-thiazol-5-yl)phenyl]methyl]pyrrolidine-2-carboxamide]: on HiBit-BRM fusion protein, the DC50 is greater than 10 µM and the “BRM HiBit Degradation Maximum measured” value is on record as “C (‘C’ = Maximum degradation <50%)”. Also, in assay [1], the DC50 is greater than 10 µM and the Dmax was less than 50%.
For `Cc1ncsc1-c1ccc(CNC(=O)[C@@H]2C[C@@H](O)CN2C(=O)[C@@H](NC(=O)CCCCCNC(=O)CCCOC[C@H](NC(=O)c2ccn(S(C)(=O)=O)c2)C(=O)Nc2nc(-c3ccccc3)cs2)C(C)(C)C)cc1` [Compound 226, (2S,4R)-4-hydroxy-1-[(2S)-2-(6-[4-[(2S)-2-[(1-methanesulfonylpyrrol-3-yl)formamido]-2-[(4-phenyl-1,3-thiazol-2-yl)carbamoyl]ethoxy]butanamido]hexanamido)-3,3-dimethylbutanoyl]-N-[[4-(4-methyl-1,3-thiazol-5-yl)phenyl]methyl]pyrrolidine-2-carboxamide], on HiBit-BRM fusion protein, the DC50 is greater than 10 µM and the “BRM HiBit Degradation Maximum measured” value was “C (‘C’ = Maximum degradation <50%)”. In assay [1], the DC50 is greater than 10 µM and the Dmax was less than 50%.
In the case of `Cc1ncsc1-c1ccc(CNC(=O)[C@@H]2C[C@@H](O)CN2C(=O)[C@@H](NC(=O)CCCCCCCNC(=O)CCCOC[C@H](NC(=O)c2ccn(S(C)(=O)=O)c2)C(=O)Nc2nc(-c3ccccc3)cs2)C(C)(C)C)cc1` [Compound 227, (2S,4R)-4-hydroxy-1-[(2S)-2-(8-[4-[(2S)-2-[(1-methanesulfonylpyrrol-3-yl)formamido]-2-[(4-phenyl-1,3-thiazol-2-yl)carbamoyl]ethoxy]butanamido]octanamido)-3,3-dimethylbutanoyl]-N-[[4-(4-methyl-1,3-thiazol-5-yl)phenyl]methyl]pyrrolidine-2-carboxamide], at HiBit-BRM fusion protein, the DC50 was greater than 10 µM and the “BRM HiBit Degradation Maximum measured” value is recorded as “C (‘C’ = Maximum degradation <50%)”. Also, in assay [1], the DC50 is greater than 10 µM and the Dmax is less than 50%.
For the compound `CS(=O)(=O)n1ccc(C(=O)N[C@@H](COCCCC(=O)NCCOc2ccc3c(c2)C(=O)N(C2CCC(=O)NC2=O)C3=O)C(=O)Nc2nc(-c3ccccc3)cs2)c1` (stereo partly shown) [Compound 228], at HiBit-BRM fusion protein, the DC50 was greater than 10 µM and the “BRM HiBit Degradation Maximum measured” value is given as “C (‘C’ = Maximum degradation <50%)”. Further, in assay [1], the DC50 was greater than 10 µM and the Dmax is less than 50%.
In the case of `CS(=O)(=O)n1ccc(C(=O)N[C@@H](COCCCC(=O)NCCCCNc2ccc3c(c2)C(=O)N(C2CCC(=O)NC2=O)C3=O)C(=O)Nc2nc(-c3ccccc3)cs2)c1` (stereo partly drawn) [Compound 229, N-(4-[[2-(2,6-dioxopiperidin-3-yl)-1,3-dioxoisoindol-5-yl]amino]butyl)-4-[(2S)-2-[(1-methanesulfonylpyrrol-3-yl)formamido]-2-[(4-phenyl-1,3-thiazol-2-yl)carbamoyl]ethoxy]butanamide], on HiBit-BRM fusion protein, the DC50 was greater than 10 µM and the “BRM HiBit Degradation Maximum measured” value is listed as “C (‘C’ = Maximum degradation <50%)”. Also, in assay [1], the DC50 was greater than 10 µM and the Dmax was less than 50%.
As for `CS(=O)(=O)n1ccc(C(=O)N[C@@H](COCCCC(=O)NCCCCCCNc2ccc3c(c2)C(=O)N(C2CCC(=O)NC2=O)C3=O)C(=O)Nc2nc(-c3ccccc3)cs2)c1` (stereo partly drawn) [Compound 230, N-(6-[[2-(2,6-dioxopiperidin-3-yl)-1,3-dioxoisoindol-5-yl]amino]hexyl)-4-[(2S)-2-[(1-methanesulfonylpyrrol-3-yl)formamido]-2-[(4-phenyl-1,3-thiazol-2-yl)carbamoyl]ethoxy]butanamide], on HiBit-BRM fusion protein, the DC50 was greater than 10 µM and the “BRM HiBit Degradation Maximum measured” value is “C (‘C’ = Maximum degradation <50%)”. In assay [1], the DC50 was greater than 10 µM and the Dmax was less than 50%.
For `CS(=O)(=O)n1ccc(C(=O)N[C@@H](COCc2ccc(C(=O)N3CCN(CC4CN(c5ccc6c(c5)C(=O)N(C5CCC(=O)NC5=O)C6=O)C4)CC3)cc2)C(=O)Nc2nc(-c3ccccc3)cs2)c1.O=CO` (stereo partly drawn) [Compound 231, (2S)-3-([4-[4-([1-[2-(2,6-dioxopiperidin-3-yl)-1,3-dioxoisoindol-5-yl]azetidin-3-yl]methyl)piperazine-1-carbonyl]phenyl]methoxy)-2-[(1-methanesulfonylpyrrol-3-yl)formamido]-N-(4-phenyl-1,3-thiazol-2-yl)propanamide; formic acid], at HiBit-BRM fusion protein, the DC50 was greater than 10 µM and the “BRM HiBit Degradation Maximum measured” value is recorded as “C (‘C’ = Maximum degradation <50%)”. Further, in assay [1], the DC50 is greater than 10 µM and the Dmax is less than 50%.
